According to ChEMBL document CHEMBL5303573, “Mapping human microbiome drug metabolism by gut bacteria and their genes” (Nature, 2019):

Legend:
[1] = The drug is tested on Bifidobacterium longum subsp. Infantis strain: CCUG52486 for biotransformation. The drug concentrations were measured before and after a 12-h incubation by liquid-chromatography-coupled mass spectrometry (LC–MS); conditions: 2 µM
[2] = The drug is tested on Bacteroides sp. WH2 strain: WH2 for biotransformation. The drug concentrations were measured before and after a 12-h incubation by liquid-chromatography-coupled mass spectrometry (LC–MS); conditions: bacteroides sp. wh2, 12 h, 2 µM
[3] = The drug is tested on Bacteroides cellulosilyticus strain: DSM14838 for biotransformation. The drug concentrations were measured before and after a 12-h incubation by liquid-chromatography-coupled mass spectrometry (LC–MS); conditions: 2 µM
[4] = The drug is tested on Clostridium sp. strain: fecal isolate for biotransformation. The drug concentrations were measured before and after a 12-h incubation by liquid-chromatography-coupled mass spectrometry (LC–MS); conditions: 2 µM
[5] = segatella copri, 12 h, 2 µM
Description: The drug is tested on Prevotella copri strain: DSM18205 for biotransformation. The drug concentrations were measured before and after a 12-h incubation by liquid-chromatography-coupled mass spectrometry (LC–MS)

[6] = The drug is tested on Edwardsiella tarda strain: ATCC23685 for biotransformation. The drug concentrations were measured before and after a 12-h incubation by liquid-chromatography-coupled mass spectrometry (LC–MS); conditions: 2 µM
[7] = The drug is tested on Ruminococcus gnavus strain: ATCC29149 for biotransformation. The drug concentrations were measured before and after a 12-h incubation by liquid-chromatography-coupled mass spectrometry (LC–MS); conditions: mediterraneibacter gnavus, 2 µM
[8] = The drug is tested on Bacteroides fragilis strain: HMW610 for biotransformation. The drug concentrations were measured before and after a 12-h incubation by liquid-chromatography-coupled mass spectrometry (LC–MS); conditions: 2 µM
[9] = The drug is tested on Alistipes indistinctus strain: DSM22520 for biotransformation. The drug concentrations were measured before and after a 12-h incubation by liquid-chromatography-coupled mass spectrometry (LC–MS); conditions: 2 µM
[10] = The drug is tested on Blautia luti strain: DSM14534 for biotransformation. The drug concentrations were measured before and after a 12-h incubation by liquid-chromatography-coupled mass spectrometry (LC–MS); format: ADME; parameters: dose 2 uM, timepoint 0 vs 12 hours; conditions: 2 µM
[11] = bacteroides intestinalis, 12 h, 2 µM
Description: The drug is tested on Bacteroides intestinalis strain: DSM17393 for biotransformation. The drug concentrations were measured before and after a 12-h incubation by liquid-chromatography-coupled mass spectrometry (LC–MS)

[12] = The drug is tested on Bacteroides dorei strain: DSM17855 for biotransformation. The drug concentrations were measured before and after a 12-h incubation by liquid-chromatography-coupled mass spectrometry (LC–MS); conditions: phocaeicola dorei, 2 µM
[13] = anaerostipes sp., 12 h, 2 µM
Description: The drug is tested on Anaerostipes sp. strain: fecal isolate for biotransformation. The drug concentrations were measured before and after a 12-h incubation by liquid-chromatography-coupled mass spectrometry (LC–MS)

[14] = bacteroides fragilis, 12 h, 2 µM
Description: The drug is tested on Bacteroides fragilis strain: NCTC 9343 for biotransformation. The drug concentrations were measured before and after a 12-h incubation by liquid-chromatography-coupled mass spectrometry (LC–MS)

[15] = parabacteroides distasonis, 12 h, 2 µM
Description: The drug is tested on Parabacteroides distasonis strain: ATCC8503 for biotransformation. The drug concentrations were measured before and after a 12-h incubation by liquid-chromatography-coupled mass spectrometry (LC–MS)

[16] = The drug is tested on Collinsella intestinalis strain: DSM13280 for biotransformation. The drug concentrations were measured before and after a 12-h incubation by liquid-chromatography-coupled mass spectrometry (LC–MS); conditions: 2 µM
[17] = The drug is tested on Anaerotruncus colihominis strain: DSM17241 for biotransformation. The drug concentrations were measured before and after a 12-h incubation by liquid-chromatography-coupled mass spectrometry (LC–MS); conditions: 2 µM
[18] = The drug is tested on Bacteroides pectinophilus strain: ATCC43243 for biotransformation. The drug concentrations were measured before and after a 12-h incubation by liquid-chromatography-coupled mass spectrometry (LC–MS); conditions: 2 µM
[19] = bacteroides thetaiotaomicron, 12 h, 2 µM
Description: The drug is tested on Bacteroides thetaiotaomicron strain: 3731 for biotransformation. The drug concentrations were measured before and after a 12-h incubation by liquid-chromatography-coupled mass spectrometry (LC–MS)

[20] = The drug is tested on Providencia stuartii strain: ATCC25827 for biotransformation. The drug concentrations were measured before and after a 12-h incubation by liquid-chromatography-coupled mass spectrometry (LC–MS); conditions: 2 µM

| Bacterial Biotransformation [1] | Bacterial Biotransformation [2] | Bacterial Biotransformation [3] | Bacterial Biotransformation [4] | Bacterial Biotransformation [5] | Bacterial Biotransformation [6] | Bacterial Biotransformation [7] | Bacterial Biotransformation [8] | Bacterial Biotransformation [9] | Bacterial Biotransformation [10] | Bacterial Biotransformation [11] | Bacterial Biotransformation [12] | Bacterial Biotransformation [13] | Bacterial Biotransformation [14] | Bacterial Biotransformation [15] | Bacterial Biotransformation [16] | Bacterial Biotransformation [17] | Bacterial Biotransformation [18] | Bacterial Biotransformation [19] | Bacterial Biotransformation [20] | Compound |
| --- | --- | --- | --- | --- | --- | --- | --- | --- | --- | --- | --- | --- | --- | --- | --- | --- | --- | --- | --- | --- |
| Compound NOT metabolized | Compound NOT metabolized | Compound NOT metabolized | Compound NOT metabolized | Compound NOT metabolized | Compound NOT metabolized | Compound NOT metabolized | Compound metabolized | Compound NOT metabolized | Compound NOT metabolized | Compound NOT metabolized | Compound metabolized | Compound NOT metabolized | Compound NOT metabolized | Compound NOT metabolized | Compound NOT metabolized | Compound NOT metabolized | Compound NOT metabolized | Compound metabolized | Compound NOT metabolized | Cc1ccc(S(=O)(=O)NC(=O)NN2CC3CCCC3C2)cc1 (stereo not given) [GLICLAZIDE] |
| Compound metabolized | Compound metabolized | Compound metabolized | Compound NOT metabolized | Compound metabolized | Compound NOT metabolized | Compound NOT metabolized | Compound NOT metabolized | Compound metabolized | Compound NOT metabolized | Compound metabolized | Compound metabolized | Compound metabolized | Compound metabolized | Compound metabolized | Compound NOT metabolized | Compound NOT metabolized | Compound metabolized | Compound metabolized | Compound NOT metabolized | COc1ccc2c(c1)c(CC(=O)O)c(C)n2C(=O)c1ccc(Cl)cc1 [INDOMETHACIN] |
| Compound NOT metabolized | Compound NOT metabolized | Compound NOT metabolized | Compound NOT metabolized | Compound NOT metabolized | Compound NOT metabolized | Compound NOT metabolized | Compound metabolized | Compound NOT metabolized | Compound NOT metabolized | Compound NOT metabolized | Compound NOT metabolized | Compound NOT metabolized | Compound NOT metabolized | Compound NOT metabolized | Compound NOT metabolized | Compound NOT metabolized | Compound NOT metabolized | Compound NOT metabolized | Compound NOT metabolized | COc1ccccc1N1CCN(CC(O)COc2cccc3ccccc23)CC1 (stereo not given) [NAFTOPIDIL] |
| Compound NOT metabolized | Compound metabolized | Compound NOT metabolized | Compound NOT metabolized | Compound NOT metabolized | Compound NOT metabolized | Compound NOT metabolized | Compound metabolized | Compound NOT metabolized | Compound NOT metabolized | Compound metabolized | Compound metabolized | Compound NOT metabolized | Compound metabolized | Compound metabolized | Compound NOT metabolized | Compound NOT metabolized | Compound NOT metabolized | Compound metabolized | Compound NOT metabolized | O=C(O)CCc1nc(-c2ccccc2)c(-c2ccccc2)o1 [OXAPROZIN] |
| Compound metabolized | Compound NOT metabolized | Compound NOT metabolized | Compound NOT metabolized | Compound NOT metabolized | Compound metabolized | Compound NOT metabolized | Compound NOT metabolized | Compound metabolized | Compound metabolized | Compound NOT metabolized | Compound metabolized | Compound NOT metabolized | Compound NOT metabolized | Compound metabolized | Compound NOT metabolized | Compound NOT metabolized | Compound metabolized | Compound NOT metabolized | Compound metabolized | NC(=O)N1c2ccccc2CC(=O)c2ccccc21 [OXCARBAZEPINE] |

| Compound | Bacterial Biotransformation [1] | Bacterial Biotransformation [2] | Bacterial Biotransformation [3] | Bacterial Biotransformation [4] | Bacterial Biotransformation [5] | Bacterial Biotransformation [6] | Bacterial Biotransformation [7] | Bacterial Biotransformation [8] | Bacterial Biotransformation [9] | Bacterial Biotransformation [10] | Bacterial Biotransformation [11] | Bacterial Biotransformation [12] | Bacterial Biotransformation [13] | Bacterial Biotransformation [14] | Bacterial Biotransformation [15] | Bacterial Biotransformation [16] | Bacterial Biotransformation [17] | Bacterial Biotransformation [18] | Bacterial Biotransformation [19] | Bacterial Biotransformation [20] |
| --- | --- | --- | --- | --- | --- | --- | --- | --- | --- | --- | --- | --- | --- | --- | --- | --- | --- | --- | --- | --- |
| Cc1ccnc2c1NC(=O)c1cccnc1N2C1CC1 [NEVIRAPINE] | Compound NOT metabolized | Compound NOT metabolized | Compound NOT metabolized | Compound metabolized | Compound NOT metabolized | Compound NOT metabolized | Compound NOT metabolized | Compound NOT metabolized | Compound NOT metabolized | Compound NOT metabolized | Compound NOT metabolized | Compound NOT metabolized | Compound NOT metabolized | Compound NOT metabolized | Compound NOT metabolized | Compound NOT metabolized | Compound NOT metabolized | Compound NOT metabolized | Compound NOT metabolized | Compound NOT metabolized |
